{"source": "patent US4250255A", "about": "“Assay method for isoenzyme activity” (Eastman Kodak Company, priority 1977, dated 1981)", "key": {"LD2": {"target": "T1, LD2 (Sus scrofa, UniProt P00336+P00339)", "T1 construct": "porcine LDH, LD1, LD2, LD3, LD4 and LD5 in the form of ammonium sulfate suspensions", "assay": "LDH activity assay with amphiphile, LDH isoenzymes", "assay_type": "biochemical, porcine", "details": "pH 7.4, read-out: LD2 activity remaining relative to buffer", "experimental": "(§1) 3. Beef heart LDH (Sigma Chemical Co., Type III), rabbit muscle LDH (Sigma Chemical Co., Type V) and porcine LDH, LD1, LD2, LD3, LD4 and LD5 in the form of ammonium sulfate suspensions were used for these examples.\n(§2) The assay for LDH activity in both the absence and presence of surfactant was conducted as follows. […] The resulting solution contains approximately 5 units/ml. […] To the equilibrated solution […]. of the enzyme solution was added, and the cuvette was rapidly shaken while covering the top of the cuvette with a small piece of Parafilm® and placed back into the spectrophotometer.\n(§3) Amphiphile solutions were prepared by weighing out a given amount of amphiphile, e.g., 100 mg, and preparing a stock solution in 30 mM sodium phosphate buffer in 100 ml. volumetric flask. Solutions of lower amphiphile concentration were prepared by making the appropriate dilutions from the stock solution."}, "LD3": {"target": "T2, LD3 (Sus scrofa, UniProt P00336+P00339)", "T2 construct": "porcine LDH, LD1, LD2, LD3, LD4 and LD5 in the form of ammonium sulfate suspensions", "assay": "LDH activity assay with amphiphile, LDH isoenzymes", "assay_type": "biochemical, porcine", "details": "pH 7.4, read-out: LD3 activity remaining relative to buffer", "experimental": "as §1, §2, §3"}, "LD4": {"target": "T3, LD4 (Sus scrofa, UniProt P00336+P00339)", "T3 construct": "porcine LDH, LD1, LD2, LD3, LD4 and LD5 in the form of ammonium sulfate suspensions", "assay": "LDH activity assay with amphiphile, LDH isoenzymes", "assay_type": "biochemical, porcine", "details": "7 mM DSS; FIG. 8", "experimental": "as §1, §2, §3"}, "human LD1": {"target": "T4, human LD1 (Homo sapiens, UniProt P07195)", "T4 construct": "A specific human LDH isoenzyme (obtained from liver homogenate or red blood cell); from tissue; host or cells: human liver homogenate or red blood cell", "assay": "LDH assay with human enzyme-containing serum", "assay_type": "biochemical", "details": "0.1 M DSS; pH 7.8; 14% protein", "experimental": "as §2\n(§4) Pooled human serum, kept frozen until ready for use, was raised to pH 11.5 until all LDH activity was destroyed. The pH was then adjusted to 7.4 and the serum was again assayed for LDH activity to ensure that no LDH had been reactivated. A specific human LDH isoenzyme (obtained from liver homogenate or red blood cell) was then added to the pool to give an enzyme concentration of ~100 U/l. The spiked serum samples were refrigerated between uses and respiked when necessary. Fresh serum was prepared weekly.\n(§5) 8. The assay method used is the same as described above for Examples 1-12, except that the test samples consisted of 25-30 μl of serum instead of 100 μl of aqueous enzyme solution."}, "human LD2": {"target": "T5, human LD2 (Homo sapiens, UniProt P00338+P07195)", "T5 construct": "A specific human LDH isoenzyme (obtained from liver homogenate or red blood cell); from tissue; host or cells: human liver homogenate or red blood cell", "assay": "LDH assay with human enzyme-containing serum", "assay_type": "biochemical", "details": "0.1 M DSS; pH 7.8; 14% protein", "experimental": "as §2, §4, §5"}, "human LD3": {"target": "T6, human LD3 (Homo sapiens, UniProt P00338+P07195)", "T6 construct": "A specific human LDH isoenzyme (obtained from liver homogenate or red blood cell); from tissue; host or cells: human liver homogenate or red blood cell", "assay": "LDH assay with human enzyme-containing serum", "assay_type": "biochemical", "details": "0.1 M DSS; pH 7.8; 14% protein", "experimental": "as §2, §4, §5"}, "human LD4": {"target": "T7, human LD4 (Homo sapiens, UniProt P00338+P07195)", "T7 construct": "A specific human LDH isoenzyme (obtained from liver homogenate or red blood cell); from tissue; host or cells: human liver homogenate or red blood cell", "assay": "LDH assay with human enzyme-containing serum", "assay_type": "biochemical", "details": "0.1 M DSS; pH 7.8; 14% protein", "experimental": "as §2, §4, §5"}, "human LD5": {"target": "T8, human LD5 (Homo sapiens, UniProt P00338)", "T8 construct": "A specific human LDH isoenzyme (obtained from liver homogenate or red blood cell); from tissue; host or cells: human liver homogenate or red blood cell", "assay": "LDH assay with human enzyme-containing serum", "assay_type": "biochemical", "details": "0.1 M DSS; pH 7.8; 14% protein", "experimental": "as §2, §4, §5"}, "[1]": {"tested_on": "isoenzymes of creatinine phosphokinase (CPK)", "assay": "Conventional coupled CPK assay (hexokinase, glucose-6-phosphate dehydrogenase)", "assay_type": "biochemical", "details": "conventional assay with coupled reactions, hexokinase and glucose-6-phosphate dehydrogenase", "from_the_text": "Of course, the particular amphiphile used and the concentration at which it is used will depend upon the particular isoenzyme being assayed. Not every amphiphile will have a discriminatory effect on the activity of isoenzymes in each isoenzyme system."}, "LD1": {"target": "LD1 (Sus scrofa, UniProt P00336)", "assay": "LDH isoenzyme assay using a multilayer element", "assay_type": "biochemical, porcine", "design": "purified porcine LDH isoenzymes", "details": "web with DSS 0.54 g/m^2 in the spreading-reagent layer; control web 11", "experimental": "(§6) Analytical elements containing all of the reagents necessary to quantitate specific isoenzymes were prepared according to the following format:\n(§7) A polycarbonate-subbed Lexan® support was coated with a reagent layer comprising agarose (2.7 g/m^2) and NADH (0.12 g/m^2) in 0.1 M Tris buffer at pH 7.4, and a spreading-reagent layer comprising Avicel® (43 g/m^2), sodium pyruvate (0.5 g/m^2), polyvinyl pyrrolidone (PVP) (2.15 g/m^2) in isopropyl alcohol, and sodium decylsulfate (DSS) (0.54 g/m^2).\n(§8) Control webs were coated as above except no sodium decylsulfate was added to the spreading-reagent layer.\n(§9) Two aqueous solutions of purified porcine LDH isoenzymes, one containing LD1 and the other LD5, were prepared in 0.01 M Tris buffer, pH 7.4, at approximately 90 mU/ml. Sample aliquots (10 μl) of each solution and a buffer control (0.01 M Tris) were spotted onto the webs which were then monitored in a POS unit for decreasing fluorescence of the NADH with respect to time at 340 nm."}, "LD5 [2]": {"target": "T9, LD5 (Sus scrofa, UniProt P00339)", "assay": "LDH isoenzyme assay using a multilayer element", "assay_type": "biochemical, porcine", "design": "purified porcine LDH isoenzymes", "details": "web with DSS 0.54 g/m^2 in the spreading-reagent layer; control web 13", "experimental": "as §6, §7, §8, §9"}, "LD1 and LD5": {"tested_on": "LD1 and LD5", "assay": "Screening of amphiphiles for ability to discriminate between LD1 and LD5", "procedure": "A series of solutions was prepared covering a range of concentrations for each amphiphile to be tested. The activities of both LD1 and LD5 were determined in the presence of the various concentrations of each amphiphile and compared with enzyme activities in buffer (relative activity).\nEnzyme activity in the presence and absence of amphiphile was measured by the following procedure: Stock solutions of NADH (4 mM) and pyruvate (40 mM) were prepared daily in 30 mM sodium phosphate buffer, pH 7.4. Enzyme solutions were prepared daily by withdrawing 5 μl of the stock enzyme solutions with a Hamilton syringe and diluting to 5 ml with 30 mM sodium phosphate buffer. (The resulting solution contains approximately 5 U of enzyme/ml.) The enzyme assay was run by pipetting 2.7 ml of buffer or buffer surfactant solution into a 10 mm path length quartz cuvette, and 100 μl each of NADH and pyruvate stock solutions were added. […] Enzyme solution was added with good mixing; the absorbance decrease at 340 nm was measured as a function of time. The rate of the reaction was determined by measuring the slope of the initial absorbance decrease, i.e., within the first 50 seconds of the reaction."}, "LD5 [3]": {"target": "T9, LD5", "assay": "LDH activity assay with amphiphile, LDH isoenzymes", "assay_type": "biochemical, porcine", "design": "LD5 from two different species, i.e., rabbit muscle and hog muscle; from tissue; host or cells: hog muscle", "details": "7 mM DSS; FIG. 8", "experimental": "as §1, §2, §3"}}, "data": [{"smiles": "CCCCCCCCCCOS(=O)(=O)[O-].[Na+]", "note": "[DSS, sodium decylsulfate]", "values": [{"measurement": "remaining activity at 7000 µM", "setting": "LD2", "value": "~60", "unit": "%"}, {"measurement": "remaining activity at 7000 µM", "setting": "LD3", "value": "~30", "unit": "%"}, {"measurement": "LD4 activity relative to buffer", "setting": "LD4", "value": "all the LD5 and LD4 activity is destroyed"}, {"measurement": "human LD1 activity", "setting": "human LD1", "value": "fully active"}, {"measurement": "human LD2 activity", "setting": "human LD2", "value": "completely deactivated"}, {"measurement": "human LD3 activity", "setting": "human LD3", "value": "completely deactivated"}, {"measurement": "human LD4 activity", "setting": "human LD4", "value": "completely deactivated"}, {"measurement": "human LD5 activity", "setting": "human LD5", "value": "completely deactivated"}, {"measurement": "discriminatory effect on the activities of the isoenzymes of CPK", "setting": "[1]", "value": "do not appear to have any discriminatory effect"}, {"measurement": "Isoenzyme Activity LD1", "setting": "LD1", "value": 15}, {"measurement": "Isoenzyme Activity LD5", "setting": "LD5 [2]", "value": 0}, {"measurement": "discrimination of LDH isoenzymes", "setting": "LD1 and LD5", "value": "excellent discriminators"}, {"measurement": "Effectiveness (LDH isoenzyme inhibition specificity, LD1 vs LD5)", "setting": "LD1 and LD5; range of amphiphile concentrations, relative activity vs buffer", "value": "++"}, {"measurement": "LD5 activity relative to buffer", "setting": "LD5 [3]", "value": "all the LD5 and LD4 activity is destroyed"}]}]}
